Measured values from ChEMBL document CHEMBL1201862, “PubChem BioAssay data set” (2004).
Calls of active or inactive are those of the source.

Tests used:
[1] = target: T1, Epstein-Barr nuclear antigen 1 (Epstein-Barr virus (strain B95-8) (HHV-4) (Human herpesvirus 4), UniProt P03211); assay: inhibition of EBV nuclear antigen 1 DNA binding – biochemical, fluorescence polarization, 1536-well, dose response (AID 2381); design: species or system human gammaherpesvirus 4;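 note: fluorescence polarization of a Cy5 DNA probe bound by EBNA-1 protein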
T1 sequence (P03211 whole entry): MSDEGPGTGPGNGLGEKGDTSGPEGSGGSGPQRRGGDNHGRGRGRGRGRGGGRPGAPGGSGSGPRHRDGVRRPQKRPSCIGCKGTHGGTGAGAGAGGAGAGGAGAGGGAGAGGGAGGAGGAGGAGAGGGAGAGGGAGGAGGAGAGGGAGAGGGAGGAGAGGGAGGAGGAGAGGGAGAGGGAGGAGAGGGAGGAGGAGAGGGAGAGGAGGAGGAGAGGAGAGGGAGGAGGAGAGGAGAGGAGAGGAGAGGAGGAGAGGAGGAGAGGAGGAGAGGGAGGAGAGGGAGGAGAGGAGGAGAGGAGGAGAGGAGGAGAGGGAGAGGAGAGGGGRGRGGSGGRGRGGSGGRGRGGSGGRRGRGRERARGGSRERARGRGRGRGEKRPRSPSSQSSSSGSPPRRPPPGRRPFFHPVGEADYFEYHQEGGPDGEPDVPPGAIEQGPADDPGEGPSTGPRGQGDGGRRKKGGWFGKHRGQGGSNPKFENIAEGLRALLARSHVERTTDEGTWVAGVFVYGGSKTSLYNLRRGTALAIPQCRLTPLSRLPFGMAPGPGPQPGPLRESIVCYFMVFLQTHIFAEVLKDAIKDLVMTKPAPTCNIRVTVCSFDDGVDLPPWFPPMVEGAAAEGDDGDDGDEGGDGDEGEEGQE

[2] = target: T2, Lytic switch protein BZLF1 (Epstein-Barr virus (strain B95-8) (HHV-4) (Human herpesvirus 4), UniProt P03206); assay: inhibition of BZLF1 ZTA DNA binding – biochemical, fluorescence polarization, Epstein-Barr virus, 1536-well, counter-screen for EBNA-1 inhibitor project, dose response (AID 2377); design: species or system human gammaherpesvirus 4;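 note: fluorescence polarization of Cy5-labelled ZRE DNA probe bound by purified Zta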
T2 sequence (P03206 whole entry): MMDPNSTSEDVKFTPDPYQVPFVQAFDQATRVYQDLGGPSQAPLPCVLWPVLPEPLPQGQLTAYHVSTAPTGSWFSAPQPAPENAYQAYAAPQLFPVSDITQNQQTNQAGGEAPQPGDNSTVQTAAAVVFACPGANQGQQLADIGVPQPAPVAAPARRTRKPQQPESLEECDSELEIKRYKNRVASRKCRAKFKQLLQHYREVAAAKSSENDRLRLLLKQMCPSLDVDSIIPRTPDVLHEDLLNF

[3] = viability inhibitors of stage V gametocytes – luminescence, dose response (AID 1117278); assay type: functional, cell-based;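 note: gametocytes exposed to compound for 24 hours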
[4] = viability loss in human Jurkat cells – cell-based, luminescence, cytotoxicity control for P. falciparum gametocyte viability project, dose response (AID 1117277); assay type: functional;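 note: potency reflects loss of cellular ATP meaning fewer viable cells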
[5] = viability loss in THP-1 monocytes – THP-1 cells, cytotoxicity control for Vif-APOBEC3G degradation inhibitor project, dose response (AID 1117359); assay type: functional; conditions: THP-1
[6] = target: Mitogen-activated protein kinase 10 (Homo sapiens, UniProt P53779); assay: Dose response biochemical screening assay for inhibitors of c-Jun N-Terminal Kinase 3 (JNK3). [Related pubchem assays: 746 ]
[7] = target: T3, Mannose-6-phosphate isomerase (Homo sapiens, UniProt P34949); assay: MPI inhibition at elevated mannose 6-phosphate – biochemical, fluorescence intensity, high mannose 6-phosphate, primary screen (AID 1220)
T3 sequence (P34949 whole entry): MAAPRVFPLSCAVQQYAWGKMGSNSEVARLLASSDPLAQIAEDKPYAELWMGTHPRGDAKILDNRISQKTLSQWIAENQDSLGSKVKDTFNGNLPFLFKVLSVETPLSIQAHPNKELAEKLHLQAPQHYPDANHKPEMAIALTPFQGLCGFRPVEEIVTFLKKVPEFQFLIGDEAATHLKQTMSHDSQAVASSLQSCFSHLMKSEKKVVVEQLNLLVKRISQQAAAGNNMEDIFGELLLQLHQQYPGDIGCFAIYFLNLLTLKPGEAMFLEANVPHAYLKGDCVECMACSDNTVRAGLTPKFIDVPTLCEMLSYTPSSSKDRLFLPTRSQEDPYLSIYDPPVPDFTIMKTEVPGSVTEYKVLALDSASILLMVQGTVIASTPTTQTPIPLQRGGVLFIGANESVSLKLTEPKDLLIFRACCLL

[8] = target: T4, Caspase-6 (Homo sapiens, UniProt P55212); assay: inhibition of CASP6 peptide cleavage – biochemical, VEID-R110 fluorescence, cherry-pick, dose response (AID 720632)
T4 sequence (P55212 whole entry): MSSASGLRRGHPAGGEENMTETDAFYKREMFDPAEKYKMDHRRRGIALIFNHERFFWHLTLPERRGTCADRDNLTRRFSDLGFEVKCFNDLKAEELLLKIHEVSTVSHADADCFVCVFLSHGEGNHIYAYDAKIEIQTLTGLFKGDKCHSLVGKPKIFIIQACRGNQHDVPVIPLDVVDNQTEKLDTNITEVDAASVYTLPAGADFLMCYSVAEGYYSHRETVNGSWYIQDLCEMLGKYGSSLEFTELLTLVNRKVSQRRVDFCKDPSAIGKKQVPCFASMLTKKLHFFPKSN

[9] = target: T5, Polyadenylate-binding protein 1 (Homo sapiens, UniProt P11940); assay: MLLE binding blockers, Cy5 peptide tracer – biochemical, fluorescence polarization, Cy5-PAM2 peptide, secondary, miRNA deadenylation inhibitor project, dose response (AID 602260); assay type: functional; conditions: read-out: IC50_Mean
[10] = target: T5, Polyadenylate-binding protein 1; assay: MLLE domain peptide-binding blockers, IC50 – biochemical, fluorescence polarization, FITC-PAM2 peptide, dose response (AID 602259); assay type: functional; conditions: read-out: IC50_Mean
[11] = cells
[12] = viability of uninfected HEp-2 cells – cell-based, HTS, cytotoxicity control for RSV inhibitor project, dose response (AID 2410); assay type: functional; conditions: human respiratory syncytial virus
[13] = target: T6, Oxysterols receptor LXR-beta (Homo sapiens, UniProt P55055); assay type: functional, cell-based;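 note: Cell-based luminescence dose-response assay of agonist activity at LXR, run as a confirmatory counterscreen to a daf-12 agonist screen; HEK293 cells with Gal4-LXR fusion and GAL4-driven luciferase reporter; agonist potency from rising luciferase signal of a Gal4-LXR reporter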
T6 sequence (P55055 whole entry): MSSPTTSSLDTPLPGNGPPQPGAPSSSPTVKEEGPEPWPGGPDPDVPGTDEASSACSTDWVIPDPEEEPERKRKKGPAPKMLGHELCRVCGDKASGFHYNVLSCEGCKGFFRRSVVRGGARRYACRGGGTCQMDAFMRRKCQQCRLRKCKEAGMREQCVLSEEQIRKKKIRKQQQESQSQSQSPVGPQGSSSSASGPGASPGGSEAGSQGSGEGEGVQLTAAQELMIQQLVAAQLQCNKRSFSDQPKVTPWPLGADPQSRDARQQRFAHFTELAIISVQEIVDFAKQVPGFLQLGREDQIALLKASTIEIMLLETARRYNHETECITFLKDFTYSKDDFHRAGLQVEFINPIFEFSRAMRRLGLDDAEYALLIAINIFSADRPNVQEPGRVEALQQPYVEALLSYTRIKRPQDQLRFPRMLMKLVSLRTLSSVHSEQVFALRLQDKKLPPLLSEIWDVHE

[14] = cells; remark: listed apart in the source
[15] = target: T7, Estrogen receptor (Homo sapiens, UniProt P03372);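 note: potency for inhibiting coactivator peptide recruitment to the receptor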
T7 sequence (P03372 whole entry): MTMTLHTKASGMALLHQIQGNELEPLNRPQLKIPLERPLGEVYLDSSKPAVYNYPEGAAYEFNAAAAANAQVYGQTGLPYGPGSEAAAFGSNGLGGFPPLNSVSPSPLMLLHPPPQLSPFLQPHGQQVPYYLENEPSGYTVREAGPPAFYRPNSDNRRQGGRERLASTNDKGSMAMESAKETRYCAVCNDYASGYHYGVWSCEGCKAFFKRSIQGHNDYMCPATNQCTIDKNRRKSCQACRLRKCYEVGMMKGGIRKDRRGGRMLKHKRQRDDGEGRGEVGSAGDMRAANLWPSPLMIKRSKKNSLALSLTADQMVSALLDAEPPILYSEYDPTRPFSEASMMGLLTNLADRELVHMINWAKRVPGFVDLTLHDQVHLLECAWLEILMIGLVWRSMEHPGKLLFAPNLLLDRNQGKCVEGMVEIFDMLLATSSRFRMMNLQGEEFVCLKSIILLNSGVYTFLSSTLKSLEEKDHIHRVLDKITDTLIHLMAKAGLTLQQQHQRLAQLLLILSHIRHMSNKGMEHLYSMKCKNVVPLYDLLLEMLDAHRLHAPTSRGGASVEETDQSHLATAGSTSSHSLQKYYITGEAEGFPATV

[16] = target: T8, Carboxy-terminal domain RNA polymerase II polypeptide A small phosphatase 1 (Homo sapiens, UniProt Q9GZU7); assay: CTDSP1 inhibitors, concentration-response, biochemical, absorbance readout, ultra-high-throughput screen actives (AID 540297); assay type: functional
T8 sequence (Q9GZU7 whole entry): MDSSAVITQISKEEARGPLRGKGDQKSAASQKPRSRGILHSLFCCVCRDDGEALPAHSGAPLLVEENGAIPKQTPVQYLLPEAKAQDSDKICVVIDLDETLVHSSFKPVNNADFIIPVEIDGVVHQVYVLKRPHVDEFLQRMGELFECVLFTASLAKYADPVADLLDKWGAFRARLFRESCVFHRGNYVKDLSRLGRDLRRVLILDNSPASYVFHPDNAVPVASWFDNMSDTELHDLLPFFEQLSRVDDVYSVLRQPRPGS

[17] = test system: BJ; assay: BJ-TERT fibroblast viability loss – cell-based, RAS-independent, luminescence, dose response (AID 1933); assay type: functional; conditions: Homo sapiens
[18] = test system: BJ; assay: cells; assay type: functional, cell-based; conditions: Homo sapiens
[19] = target: Luciferin 4-monooxygenase (Photinus pyralis, UniProt P08659); assay: inhibition of purified Photinus pyralis luciferase – biochemical, luminescence, dose response (AID 1891)
[20] = Luminescence Cell-Based Dose Confirmation HTS to Identify Inhibitors of Platelet Dense Granule Release. [Related pubchem assays: 1663 (Primary HTS), 1678 (Summary of Project)]; assay type: functional
[21] = test system: BJ; assay: BJ-TERT-LT-ST fibroblast viability loss – cell-based, RAS-independent, luminescence, dose response (AID 1935); assay type: functional; conditions: Homo sapiens;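 note: BJ fibroblasts immortalized with TERT plus LT and ST oncogenes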
[22] = DRD fibroblast viability loss – cell-based, non-viral oncogenic, luminescence, dose response (AID 1934); assay type: functional; conditions: Homo sapiens
[23] = A549 cell cytotoxicity, dose response, cytotoxicity control, plate reader, cherry-pick, antagonist series (AID 743412); assay type: functional, cell-based
[24] = toxicity toward HepG2 liver cells – cell-based, plate reader, cherry-pick, antagonist series, cytotoxicity control, dose response (AID 743416); assay type: functional
[25] = blockers of bursicon-stimulated LGR2 cAMP reporter – cell-based, HEK293, CRE-luciferase reporter, cherry pick, set 2, dose response (AID 743343); assay type: functional;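 note: transfected cells were stimulated with diluted bursicon conditioned medium after compound addition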
[26] = blockade of melanocortin 4 receptor signaling – cell-based, plate reader, cherry pick, counter-screen for LGR2 antagonist project, dose response (AID 743444); assay type: functional;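 note: transfected HEK 293 cells stimulated with alpha-MSH peptide; potency of inhibitors of the alpha-MSH evoked signal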
[27] = viability loss in HEK293 cells – cell-based, plate reader, cherry-picked samples, cytotoxicity control, dose response (AID 743446); assay type: functional

T5 sequence (P11940 whole entry, the tested form may be a part): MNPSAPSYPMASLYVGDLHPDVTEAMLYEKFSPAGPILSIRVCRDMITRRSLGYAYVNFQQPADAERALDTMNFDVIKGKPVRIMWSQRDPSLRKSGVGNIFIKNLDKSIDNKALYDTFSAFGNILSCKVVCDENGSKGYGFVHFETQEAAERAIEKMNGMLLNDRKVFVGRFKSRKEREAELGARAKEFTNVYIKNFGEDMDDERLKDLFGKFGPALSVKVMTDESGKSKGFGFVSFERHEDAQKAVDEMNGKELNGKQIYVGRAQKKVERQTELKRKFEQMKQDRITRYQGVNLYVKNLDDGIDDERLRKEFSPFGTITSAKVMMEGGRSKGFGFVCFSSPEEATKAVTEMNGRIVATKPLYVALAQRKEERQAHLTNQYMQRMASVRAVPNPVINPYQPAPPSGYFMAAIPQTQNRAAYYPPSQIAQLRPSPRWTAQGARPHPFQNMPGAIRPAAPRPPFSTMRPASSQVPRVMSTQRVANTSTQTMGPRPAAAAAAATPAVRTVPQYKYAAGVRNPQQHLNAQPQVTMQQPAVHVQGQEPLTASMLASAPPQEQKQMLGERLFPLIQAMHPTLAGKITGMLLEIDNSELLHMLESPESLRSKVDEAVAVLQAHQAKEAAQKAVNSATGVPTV
Luciferin 4-monooxygenase, sequence (P08659 whole entry): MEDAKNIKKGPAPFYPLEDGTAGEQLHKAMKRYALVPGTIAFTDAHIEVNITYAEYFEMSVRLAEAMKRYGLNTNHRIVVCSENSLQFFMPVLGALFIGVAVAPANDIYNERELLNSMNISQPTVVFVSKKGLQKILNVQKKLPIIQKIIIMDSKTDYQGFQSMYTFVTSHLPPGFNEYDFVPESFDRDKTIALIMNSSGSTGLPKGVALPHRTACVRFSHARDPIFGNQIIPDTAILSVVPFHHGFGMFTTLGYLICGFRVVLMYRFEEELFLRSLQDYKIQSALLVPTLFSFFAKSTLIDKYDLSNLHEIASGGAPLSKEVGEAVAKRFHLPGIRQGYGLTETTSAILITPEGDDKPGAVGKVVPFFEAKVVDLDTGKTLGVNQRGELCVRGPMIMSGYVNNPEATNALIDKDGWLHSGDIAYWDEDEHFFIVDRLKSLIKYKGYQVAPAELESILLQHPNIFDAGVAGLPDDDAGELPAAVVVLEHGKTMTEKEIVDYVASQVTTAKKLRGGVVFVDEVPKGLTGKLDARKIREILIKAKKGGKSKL
Mitogen-activated protein kinase 10, sequence (P53779 whole entry): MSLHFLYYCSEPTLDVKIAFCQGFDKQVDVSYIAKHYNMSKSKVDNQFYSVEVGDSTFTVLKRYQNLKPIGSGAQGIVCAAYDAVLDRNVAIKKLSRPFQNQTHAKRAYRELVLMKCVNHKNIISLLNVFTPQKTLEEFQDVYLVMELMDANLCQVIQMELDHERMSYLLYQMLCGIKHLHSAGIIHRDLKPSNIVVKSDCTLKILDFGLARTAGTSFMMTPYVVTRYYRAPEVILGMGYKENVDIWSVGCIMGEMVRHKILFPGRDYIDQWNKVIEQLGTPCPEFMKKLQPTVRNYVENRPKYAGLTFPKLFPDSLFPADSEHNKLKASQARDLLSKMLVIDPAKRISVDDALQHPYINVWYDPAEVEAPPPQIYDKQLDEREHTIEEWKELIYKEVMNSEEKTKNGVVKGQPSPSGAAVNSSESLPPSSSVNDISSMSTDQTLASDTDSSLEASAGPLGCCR

SMILES: CCOC(=O)[C@H]1[C@H]2COc3ccc(Cl)cc3[C@@H]2N2C(=O)c3ccc(Cl)cc3NC(=O)[C@@]12C
- IC50 [1]: > 148 µM (not active)
- IC50 [2]: > 111 µM (not active)

SMILES: CN(C)c1ccc(S(=O)(=O)N2CCCCC2)cc1NC(=O)COc1ccccc1F
- IC50 [3]: > 109 µM (inactive)
- IC50 [4]: > 83.3 µM (inactive)

SMILES: Cc1ccc(-n2c(SCC(=O)NCc3ccco3)nc3c4ccccc4nc-3c2O)cc1
- CC50 [5]: > 40 µM (active)

SMILES: CCN(CC)S(=O)(=O)c1ccc2nc(COC(=O)c3n[nH]c4ccccc34)[nH]c2c1
- IC50 [6]: 0.401 µM (active)

SMILES: CN(C)c1cccc2c(C#N)ccc(N(C)C)c12
- IC50 [7]: > 50 µM (not active)

SMILES: C(=C\c1ccc([C@H]2[C@H]3CNC[C@@H]2N3Cc2ccccn2)cc1)/c1ccccc1
- AC50 [8]: 41.9 µM (active)

SMILES: Cc1nnc(NS(=O)(=O)c2ccc(N=Nc3ccc(N)nc3N)cc2)s1
- AC50 [8]: 3.23 µM (active)

SMILES: c1coc(-c2nn3c(Cn4nnc5ccccc54)nnc3s2)c1
- IC50 [9]: > 66 µM (inactive)
- IC50 [10]: > 66 µM (inactive)
- IC50 [11]: 8.25 µM (active)

SMILES: CCOC(=O)c1ccc(-c2csc(NC(=O)CN3CCC(C)CC3)n2)cc1
- IC50 [1]: 5.32 µM (active)
- IC50 [2]: > 111 µM (not active)

SMILES: O=C(NCc1ccc(F)cc1)C(Cc1ccccc1)NS(=O)(=O)c1cccs1 (configuration not stated)
- IC50 [3]: > 109 µM (inactive)
- IC50 [4]: > 83.3 µM (inactive)

SMILES: O=[N+]([O-])c1c(NCCO)cc(N2CCC3(CC2)OCCO3)c2nonc12
- IC50 [7]: > 50 µM (not active)

SMILES: O=c1c2sccc2n(Cc2cc(=O)n3ccccc3n2)c(=O)n1-c1ccccc1
- IC50 [11]: 14 µM (active)

SMILES: Cc1cccc(Nc2nc(NCc3ccco3)nc(N3CCOCC3)n2)c1
- CC50 [12]: 36.8 µM (active)
- IC50 [3]: > 109 µM (inactive)
- IC50 [4]: > 83.3 µM (inactive)

SMILES: COc1cc2c(cc1NC(=O)Nc1ccccc1)oc1ccccc12
- CC50 [12]: 13.2 µM (active)
- IC50 [11]: 30.4 µM (active)

SMILES: O=C(NC(=S)Nc1ccc(Br)cn1)c1cccs1
- EC50 [13]: > 67.5 µM (inactive)
- EC50 [14]: > 67.5 µM (inactive)

SMILES: Nc1c(C(=O)Nc2ccccc2)sc2nc(-c3ccco3)ccc12
- IC50 [1]: 6.43 µM (active)
- IC50 [2]: > 111 µM (not active)

SMILES: CN(/N=C/c1cccnc1)c1cnn(-c2ccc(F)c(Cl)c2)c(=O)c1Cl
- IC50 [15]: 17.9 µM (active)
- IC50 [16]: > 80 µM (inactive)

SMILES: COc1ccc(-c2ccc(SC)nn2)cc1
- EC50 [17]: 6.75 µM (active)
- EC50 [18]: 6.55 µM (active)
- EC50 [19]: 1.1 µM (active)
- EC50 [20]: 1.98 µM (active)
- EC50 [21]: 15.7 µM (active)
- EC50 [22]: 6.25 µM (active)
- AC50 [23]: 14.4 µM (active)
- AC50 [24]: 8.69 µM (active)
- AC50 [25]: 5.07 µM (active)
- AC50 [26]: 6.62 µM (active)
- AC50 [27]: 8.72 µM (active)

SMILES: CC(=O)Nc1nc(C=C(Cl)Cl)cs1
- IC50 [15]: > 50 µM (not active)

SMILES: CC(C)(C)C(=O)OCc1nc(-c2ccc(O)c(O)c2)cs1
- CC50 [5]: 27.8 µM (active)
